Experimental data from US10442803B2, “Tricyclic heterocycles as bet protein inhibitors” (Incyte Corporation, priority 2013, dated 2019).
Where a name gives a salt, the structure may show the parent alone.

Assays:
KMS.12.BM cells = experiment: KMS.12.BM cell viability assay; format: cell-based; conditions: 72 h; KMS.12.BM human myeloma cells, 3 days, Cell Titer-GLO ATP quantitation; read-out: KMS cellular IC50
Outline: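 IC50 derived from luminescent ATP quantitation (Cell Titer-GLO) of viable cells after 3-day compound treatment. KMS.12.BM human myeloma line seeded at 5000 cells/well in RPMI with 10% FBS.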

BRD4-BD1 = BRD4-BD1 (Homo sapiens (Human), UniProt O60885); experiment: BRD4 AlphaScreen assay (BRD4-BD1); format: binding; conditions: H4Ac4 peptide, read-out: BRD4 BD-1 enzyme IC50
Protocol: (§1) BRD4-BD1 and BRD4-BD2 assays were conducted in white 384-well polystyrene plate in a final volume of 20 μL for BD1 and 40 μL for BD2. Inhibitors were first serially diluted in DMSO and added to the plate wells before the addition of other reaction components. The final concentration of DMSO in the assay was 1.25% (BD1) and 0.83% (BD2). The assays were carried out at room temperature for 75 min. in the assay buffer (50 mM HEPES, pH 7.4, 100 mM NaCl, 0.05% CHAPS, 0.01% BSA), containing 50 nM Biotin-labeled tetra-acetylated histone H4 peptide (H4Ac4), 3.8 nM (BRD4-BD1, BPS Bioscience #31040) or 20 nM (BRD4-BD2, BPS Bioscience #31041). The reaction followed by the addition of 20 μL of assay buffer supplemented with Streptavidin donor beads (PerkinElmer 6760002) and GSH Acceptor beads (PerkinElmer-AL109C) at 4 μg/mL under reduced light. After plate sealing, the plate was incubated in the dark at room temperature for 75 min. before reading on a PHERAstar FS plate reader (BMG Labtech). IC50 determination was performed by fitting the curve of percent control activity versus the log of the inhibitor concentration using the GraphPad Prism 5.0 software.

BRD4-BD2 = BRD4-BD2 (Homo sapiens (Human), UniProt O60885); experiment: BRD4 AlphaScreen assay (BRD4-BD2); format: binding; conditions: H4Ac4 peptide, read-out: BRD4 BD-2 enzyme IC50
Protocol: as §1

Compound: Cc1cc2c(ccc3nnc(C)n32)n1[C@@H](C)c1ccccc1 (single isomer, unassigned) [Example 5, 1,7-dimethyl-6-(1-phenylethyl)-6H-pyrrolo[2,3-e][1,2,4]triazolo[4,3-a]pyridine]
- IC50 (KMS.12.BM cells): 1 to 10 µM
- IC50 (BRD4-BD1): 0.1 to 1 µM
- IC50 (BRD4-BD2): ≤ 0.1 µM

Compound: Cc1nnc2ccc3c(cc(-c4ccn(C5CN(S(C)(=O)=O)C5)n4)n3Cc3cccc(Cl)c3)n12 [Example 109, 6-(3-chlorobenzyl)-1-methyl-7-{1-[1-(methylsulfonyl)azetidin-3-yl]-1H-pyrazol-3-yl}-6H-pyrrolo[2,3-e][1,2,4]triazolo[4,3-a]pyridine]
- IC50 (KMS.12.BM cells): ≤ 1 µM
- IC50 (BRD4-BD2): ≤ 0.1 µM

Compound: CCN1CC(CC#N)(n2ccc(-c3cc4c(ccc5nnc(C)n54)n3Cc3ccccc3)n2)C1 [Example 110, {3-[3-(6-benzyl-1-methyl-6H-pyrrolo[2,3-e][1,2,4]triazolo[4,3-a]pyridin-7-yl)-1H-pyrazol-1-yl]-1-ethylazetidin-3-yl}acetonitrile]
- IC50 (KMS.12.BM cells): ≤ 1 µM
- IC50 (BRD4-BD1): ≤ 0.1 µM

Compound: Cc1nnc2ccc3c(cc(-c4ccn(C5(CC#N)CN(C(C)C)C5)n4)n3Cc3ccccc3)n12 [Example 111, {3-[3-(6-benzyl-1-methyl-6H-pyrrolo[2,3-e][1,2,4]triazolo[4,3-a]pyridin-7-yl)-1H-pyrazol-1-yl]-1-isopropylazetidin-3-yl}acetonitrile]
- IC50 (KMS.12.BM cells): ≤ 1 µM
- IC50 (BRD4-BD1): ≤ 0.1 µM

Compound: Cc1nnc2ccc3c(cc(-c4nnco4)n3Cc3cc(Cl)cc(CN4CC(O)C4)c3)n12 [Example 139, 1-(3-Chloro-5-{[1-methyl-7-(1,3,4-oxadiazol-2-yl)-6H-pyrrolo[2,3-e][1,2,4]triazolo[4,3-a]pyridin-6-yl]methyl}benzyl)azetidin-3-ol]
- IC50 (KMS.12.BM cells): 1 to 10 µM
- IC50 (BRD4-BD1): ≤ 0.1 µM
- IC50 (BRD4-BD2): ≤ 0.1 µM

Compound: Cc1nnc2ccc3c(cc(-c4nnco4)n3Cc3cc(Cl)cc(CN4CCC4)c3)n12 [Example 140, 6-[3-(Azetidin-1-ylmethyl)-5-chlorobenzyl]-1-methyl-7-(1,3,4-oxadiazol-2-yl)-6H-pyrrolo[2,3-e][1,2,4]triazolo[4,3-a]pyridine]
- IC50 (KMS.12.BM cells): ≤ 1 µM

Compound: Cc1nnc2ccc3c(cc(-c4nnco4)n3Cc3cccc(Cl)c3)n12 [Example 141, 6-(3-Chlorobenzyl)-1-methyl-7-(1,3,4-oxadiazol-2-yl)-6H-pyrrolo[2,3-e][1,2,4]triazolo[4,3-a]pyridine trifluoroacetate salt]
- IC50 (KMS.12.BM cells): ≤ 1 µM
- IC50 (BRD4-BD1): ≤ 0.1 µM
- IC50 (BRD4-BD2): ≤ 0.1 µM

Compound: Cc1nnc2ccc3c(cc(-c4ccn(C5CNC5)n4)n3Cc3cccc(Cl)c3)n12 [Example 156, 7-(1-azetidin-3-yl-1H-pyrazol-3-yl)-6-(3-chlorobenzyl)-1-methyl-6H-pyrrolo[2,3-e][1,2,4]triazolo[4,3-a]pyridine bis(trifluoroacetate) salt]
- IC50 (KMS.12.BM cells): ≤ 1 µM
- IC50 (BRD4-BD1): ≤ 0.1 µM
- IC50 (BRD4-BD2): ≤ 0.1 µM

Compound: Cc1nnc2ccc3c(cc(-c4ccn(C5(CC#N)CNC5)n4)n3Cc3cccc(Cl)c3)n12 [Example 157, (3-{3-[6-(3-Chlorobenzyl)-1-methyl-6H-pyrrolo[2,3-e][1,2,4]triazolo[4,3-a]pyridin-7-yl]-1H-pyrazol-1-yl}azetidin-3-yl)acetonitrile bis(trifluoroacetate) salt]
- IC50 (KMS.12.BM cells): ≤ 1 µM
- IC50 (BRD4-BD1): ≤ 0.1 µM
- IC50 (BRD4-BD2): ≤ 0.1 µM

Compound: Cc1nc2c(cc(NC3CCN(C)CC3)c3nnc(C)n32)n1Cc1ccccc1 [Example 223, 3-Benzyl-2,8-dimethyl-N-(1-methylpiperidin-4-yl)-3H-imidazo[4,5-e][1,2,4]triazolo[4,3-a]pyridin-5-amine]
- IC50 (KMS.12.BM cells): ≤ 1 µM
- IC50 (BRD4-BD1): ≤ 0.1 µM

Compound: Cc1cc2c(cc(Nc3cccnc3)c3nnc(C)n32)n1Cc1ccccc1 [Example 256, 6-Benzyl-1,7-dimethyl-N-(pyridin-3-yl)-6H-pyrrolo[2,3-e][1,2,4]triazolo[4,3-a]pyridin-4-amine]
- IC50 (KMS.12.BM cells): ≤ 1 µM

Compound: Cc1cc2c(cc(NCCCN)c3nnc(C)n32)n1Cc1ccccc1 [Example 257, N1-(6-Benzyl-1,7-dimethyl-6H-pyrrolo[2,3-e][1,2,4]triazolo[4,3-a]pyridin-4-yl)propane-1,3-diamine]
- IC50 (KMS.12.BM cells): ≤ 1 µM

Compound: Cc1cc2c(cc(NCCN)c3nnc(C)n32)n1Cc1ccccc1 [Example 258, N1-(6-benzyl-1,7-dimethyl-6H-pyrrolo[2,3-e][1,2,4]triazolo[4,3-a]pyridin-4-yl)ethane-1,2-diamine]
- IC50 (KMS.12.BM cells): ≤ 1 µM

Compound: CCNc1cc2c(cc(C)n2Cc2ccccc2)n2c(C)nnc12 [Example 259, 6-Benzyl-N-ethyl-1,7-dimethyl-6H-pyrrolo[2,3-e][1,2,4]triazolo[4,3-a]pyridin-4-amine]
- IC50 (KMS.12.BM cells): ≤ 1 µM

Compound: Cc1cc2c(cc(Nc3ccccc3)c3nnc(C)n32)n1Cc1ccccc1 [Example 260, 6-Benzyl-1,7-dimethyl-N-phenyl-6H-pyrrolo[2,3-e][1,2,4]triazolo[4,3-a]pyridin-4-amine]
- IC50 (KMS.12.BM cells): 1 to 10 µM

Compound: CNc1cc2c(cc(C)n2Cc2ccccc2)n2c(C)nnc12 [Example 261, 6-Benzyl-N,1,7-trimethyl-6H-pyrrolo[2,3-e][1,2,4]triazolo[4,3-a]pyridin-4-amine]
- IC50 (KMS.12.BM cells): ≤ 1 µM

Compound: CCCNc1cc2c(cc(C)n2Cc2ccccc2)n2c(C)nnc12 [Example 262, 6-Benzyl-N-propyl-1,7-dimethyl-6H-pyrrolo[2,3-e][1,2,4]triazolo[4,3-a]pyridin-4-amine]
- IC50 (KMS.12.BM cells): 1 to 10 µM

Compound: Cc1cc2c(cc(NC(C)C)c3nnc(C)n32)n1Cc1ccccc1 [Example 263, 6-Benzyl-N-isopropyl-1,7-dimethyl-6H-pyrrolo[2,3-e][1,2,4]triazolo[4,3-a]pyridin-4-amine]
- IC50 (KMS.12.BM cells): 1 to 10 µM

Compound: CC(=O)Nc1cc2c(cc(C)n2Cc2ccccc2)n2c(C)nnc12 [Example 266, N-(6-Benzyl-1,7-dimethyl-6H-pyrrolo[2,3-e][1,2,4]triazolo[4,3-a]pyridin-4-yl)acetamide]
- IC50 (KMS.12.BM cells): ≤ 1 µM

Compound: CCCC(=O)Nc1cc2c(cc(C)n2Cc2ccccc2)n2c(C)nnc12 [Example 267, N-(6-Benzyl-1,7-dimethyl-6H-pyrrolo[2,3-e][1,2,4]triazolo[4,3-a]pyridin-4-yl)butyramide]
- IC50 (KMS.12.BM cells): ≤ 1 µM

Compound: CCC(=O)Nc1cc2c(cc(C)n2Cc2ccccc2)n2c(C)nnc12 [Example 268, N-(6-Benzyl-1,7-dimethyl-6H-pyrrolo[2,3-e][1,2,4]triazolo[4,3-a]pyridin-4-yl)propionamide]
- IC50 (KMS.12.BM cells): ≤ 1 µM

Compound: Cc1cc2c(cc(NC(=O)C3CC3)c3nnc(C)n32)n1Cc1ccccc1 [Example 269, N-(6-Benzyl-1,7-dimethyl-6H-pyrrolo[2,3-e][1,2,4]triazolo[4,3-a]pyridin-4-yl)cyclopropanecarboxamide]
- IC50 (KMS.12.BM cells): ≤ 1 µM

Compound: Cc1cc2c(cc(NC(=O)C(C)C)c3nnc(C)n32)n1Cc1ccccc1 [Example 270, N-(6-Benzyl-1,7-dimethyl-6H-pyrrolo[2,3-e][1,2,4]triazolo[4,3-a]pyridin-4-yl)isobutyramide]
- IC50 (KMS.12.BM cells): ≤ 1 µM

Compound: Cc1cc2c(cc(NS(C)(=O)=O)c3nnc(C)n32)n1Cc1ccccc1 [Example 271, N-(6-Benzyl-1,7-dimethyl-6H-pyrrolo[2,3-e][1,2,4]triazolo[4,3-a]pyridin-4-yl)methanesulfonamide]
- IC50 (KMS.12.BM cells): ≤ 1 µM

Compound: COC(=O)Nc1cc2c(cc(C)n2Cc2ccccc2)n2c(C)nnc12 [Example 272, Methyl 6-benzyl-1,7-dimethyl-6H-pyrrolo[2,3-e][1,2,4]triazolo[4,3-a]pyridin-4-ylcarbamate]
- IC50 (KMS.12.BM cells): ≤ 1 µM
